{
  "source": "paper PMC8747639",
  "about": "“Novel Angiotensin-Converting Enzyme Inhibitory Peptides Identified from Walnut Glutelin-1 Hydrolysates: Molecular Interaction, Stability, and Antihypertensive Effects” (Nutrients, 2021)",
  "key": {"ACE (from rabbit lung)": {"molecular_target": "T1, ACE (from rabbit lung) (Oryctolagus cuniculus, UniProt P12822)", "T1 construct": "ACE (from rabbit lung) and hippuryl-histidyl-leucine (HHL) were purchased from Sigma Co; purchased Sigma Co., St. Louis, MO, USA; host or cells: rabbit lung (tissue-derived)", "T1 sequence (P12822 34-1310)": "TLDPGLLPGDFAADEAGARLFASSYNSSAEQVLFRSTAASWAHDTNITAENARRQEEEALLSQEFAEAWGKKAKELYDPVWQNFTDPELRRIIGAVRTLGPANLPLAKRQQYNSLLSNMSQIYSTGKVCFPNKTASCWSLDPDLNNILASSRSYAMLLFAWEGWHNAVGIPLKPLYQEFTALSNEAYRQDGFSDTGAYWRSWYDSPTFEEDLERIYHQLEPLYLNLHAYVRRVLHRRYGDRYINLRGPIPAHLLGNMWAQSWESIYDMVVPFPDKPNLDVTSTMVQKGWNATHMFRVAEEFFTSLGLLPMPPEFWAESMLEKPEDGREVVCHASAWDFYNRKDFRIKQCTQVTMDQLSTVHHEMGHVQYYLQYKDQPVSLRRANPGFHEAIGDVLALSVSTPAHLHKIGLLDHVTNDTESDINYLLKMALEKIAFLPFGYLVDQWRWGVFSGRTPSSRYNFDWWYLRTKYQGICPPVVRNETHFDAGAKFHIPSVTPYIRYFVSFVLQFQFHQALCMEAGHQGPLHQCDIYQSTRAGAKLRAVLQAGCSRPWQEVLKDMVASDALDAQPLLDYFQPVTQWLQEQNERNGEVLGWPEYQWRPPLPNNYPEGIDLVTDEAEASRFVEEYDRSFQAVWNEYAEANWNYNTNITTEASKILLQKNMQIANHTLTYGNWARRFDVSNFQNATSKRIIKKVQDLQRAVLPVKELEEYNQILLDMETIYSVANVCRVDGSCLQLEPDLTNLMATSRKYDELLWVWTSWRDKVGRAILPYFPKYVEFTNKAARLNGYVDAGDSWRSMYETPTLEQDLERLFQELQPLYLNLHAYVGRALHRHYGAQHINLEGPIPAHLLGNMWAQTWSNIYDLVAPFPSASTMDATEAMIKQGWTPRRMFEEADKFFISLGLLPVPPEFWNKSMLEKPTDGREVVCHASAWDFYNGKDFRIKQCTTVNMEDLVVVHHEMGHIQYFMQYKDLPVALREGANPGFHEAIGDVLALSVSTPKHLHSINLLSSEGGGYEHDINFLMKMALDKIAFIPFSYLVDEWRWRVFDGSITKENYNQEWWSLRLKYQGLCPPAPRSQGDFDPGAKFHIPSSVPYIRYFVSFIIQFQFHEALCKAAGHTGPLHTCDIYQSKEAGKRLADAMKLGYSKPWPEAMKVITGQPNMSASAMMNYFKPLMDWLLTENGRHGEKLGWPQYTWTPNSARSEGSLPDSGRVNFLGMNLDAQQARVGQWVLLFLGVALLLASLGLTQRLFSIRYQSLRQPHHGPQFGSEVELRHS", "test": "ACE inhibitory activity (HHL substrate, absorbance)", "format": "biochemical", "details": "for IC50: calculated by linear regression of the curve, read-out: IC50 on angiotensin converting enzyme (ACE)", "from_the_text": "(§1) The Grain, Oil and Protein Engineering Laboratory of Shaanxi Normal University (Xi’an, China) provided the defatted walnut meal. ACE (from rabbit lung) and hippuryl-histidyl-leucine (HHL) were purchased from Sigma Co., St. Louis, MO, USA. Pepsin (3 × 10^3 U/g) was obtained from Solarbio Science & Technology, Co., Ltd. (Beijing, China). High-performance liquid chromatography grade acetonitrile and trifluoroacetic acid were purchased from Fischer Scientific Co. (Waltham, MA, USA). The enzyme-linked immunosorbent assay kit for the detection of ACE, angiotensinogen (AGT), aldosterone (ALD), and Endothelin-1(ET-1) was purchased from Jiangsu Jingmei Biotechnology Co., Ltd. (YanCheng, China). The enzyme-linked immunosorbent assay kit for the detection of Ang II was obtained from Shanghai Kexing Biotechnology Co., Ltd., (Shanghai, China). and the nitric oxide (NO) detection kit was a product of Nanjing Jiancheng Institute of Biological Engineering (Nanjing, China), and other chemical reagents used in the experiment were of analytical grade.\nFollowing a previous method reported by Zheng et al. (2017), we could determine the ACE inhibitory activity of glutelin-1 hydrolysate, separated fractions, active peptides, and all the other samples with 1.0 mg/mL Captopril as a positive control. The IC50 value (the concentrationof the inhibitory peptide (μM) had to inhibit 50% of the ACE activity) was calculated by linear regression of the curve.\nThe following formula was used to calculate the ACE inhibition rate (%): ACE inhibition rate(%)=(1-As/Ac)×100 where Ac represents ACE solution’s absorbance without an inhibitor and As represents the mixture containing samples."}, "pepsin and trypsin": {"system": "pepsin and trypsin", "test": "GI digestion stability of the synthesized peptides (pepsin, trypsin), read out as ACE inhibitory activity", "format": "in vitro ADME", "details": "pepsin 1 mg/mL pH 2.0 37 °C 3 h, or trypsin 1.0 mg/mL pH 8.0 37 °C 4 h", "experimental": "We conducted a GI digestion stability analysis of the synthesized peptides according to the method proposed by Khueychai et al. (2018) with slight modifications. Briefly, the peptide solution was incubated with 1 mg/mL of pepsin solution (0.1 M HCl, pH 2.0) at 37 °C for 3 h. Subsequently, the pH value of the mixed solution was adjusted to 8.0 with 1.0 M NaOH, and 1.0 mg/mL of trypsin added and incubated at 37 °C for 4 h. Finally, the ACE inhibitory activity of the reaction solution could be determined after boiling for 10 min, cooling to room temperature, and centrifuging for 15 min at 10,000× g."}, "[1]": {"test": "Temperature, pH, metal ion, sugar and salt treatment stability of the synthesized peptides, read out as ACE inhibition rate", "format": "physicochemical", "details": "1.0 mg/mL peptide; for stability of ACE inhibitory activity with metal ions K+, Ca2+ and Mg2+: 100 μg/mL KCl, CaCl2, MgSO4, 37 °C for 2 h; for stability of ACE inhibitory activity under high-concentration salt conditions / stability of ACE inhibitory activity under low-concentration salt conditions: NaCl solutions 2-12%; for stability of ACE inhibitory activity under high-concentration salt conditions / stability of ACE inhibitory activity under low-concentration salt conditions / stability of ACE inhibitory activity at low glucose concentration: 37 °C for 30 min; for stability of ACE inhibitory activity at low glucose concentration: glucose solutions 2-12%, low concentrations", "experimental": "The effect of temperature, pH, metal ion, sugar, and salt treatments on the stabilities of two synthesized peptides, were determined by incubating 1.0 mg/mL of VERGRRITSV and FVIEPNITPA at 20 °C, 40 °C, 60 °C, 80 °C, and 100 °C for 2 h; 37 °C for 2 h at pH 2, 4, 6, 8, and 10; with 100 μg/mL of KCl, CaCl2, ZnSO4, MgSO4, and FeSO4 solution at 37 °C for 2 h; with glucose solutions of 2%, 4%, 8%, and 12% at 37 °C for 30 min; with NaCl solutions of 2%, 4%, 8%, and 12% at 37 °C for 30 min, respectively. The ACE inhibition rate was measured immediately after incubation."}, "[2]": {"system": "spontaneously hypertensive rats (SHRs)", "test": "BP measurement after single oral administration in SHR (tail-cuff)", "format": "in vivo, rat", "details": "single intragastric administration, 0-8 h", "experimental": "(§2) Thirty 10-week-old male spontaneously hypertensive rats (SHRs) and five normal male rats of the same age were used for the experiment. The rats were placed at 25 °C ± 1 °C, relative humidity of 45–55% and a light/dark cycle for 12 h. SHRs were randomly divided into 6 groups after one week of adaptation, while rats in the normal group (NG) were used as controls. The administration was continued for 28 days.\n(§3) Rats in the normal and SHR groups were given 1.0 mL of 0.9% saline per day, while the positive control group was given captopril (10 mg/kg body weight) per day. The ACE inhibitory peptides treatment groups’ low and high doses were fed orally with 5 and 15 mg/kg (based on their body weight) by dissolving the peptides in 1.0 mL of 0.9% normal saline. The rats’ BP was measured by the tail-cuff method. The systolic blood pressure (SBP), diastolic blood pressure (DBP), and heart rate of all rats were measured after a single oral administration (0–8 h) and weekly (0–4 weeks). All measurements were repeated at least three times so the average value could be calculated."}, "[3]": {"system": "spontaneously hypertensive rats (SHRs)", "test": "BP measurement during four weeks of oral administration in SHR (tail-cuff)", "format": "in vivo, rat", "details": "daily oral", "experimental": "as §2, §3"}, "[4]": {"system": "serum ET-1, NO, ACE, Ang II, AGT, ALD", "test": "Serum ET-1, NO, ACE, Ang II, AGT and ALD in SHR (ELISA / NO kit)", "format": "in vivo, rat", "details": "28 days oral administration", "from_the_text": "as §1\nThe upper serum samples were obtained by centrifugation at 3000× g at 4 °C for 10 min after the blood was taken from the abdominal aorta of all rats. The samples were stored at −20 °C, and the serum expression was detected using the ELISA kit (double antibody sandwich enzyme-linked immunosorbent assay)."}},
  "note": "No end group written: not given here.",
  "data": [
    {"sequence": "VERGRRITSV [VERGRRITSV, Val-Glu-Arg-Gly-Arg-Arg-Ile-Thr-Ser-Val]", "values": [
      {"measurement": "IC50", "setting": "ACE (from rabbit lung)", "value": 6.82, "unit": "µM"},
      {"measurement": "ACE inhibitory activity under pepsin or trypsin digestion", "setting": "pepsin and trypsin", "value": "could still maintain high ACE inhibitory activity"},
      {"measurement": "stability of ACE inhibitory activity with metal ions K+, Ca2+ and Mg2+", "setting": "[1]; read-out ACE inhibition rate", "value": "showed stability"},
      {"measurement": "stability of ACE inhibitory activity under high-concentration salt conditions", "setting": "[1]; read-out ACE inhibition rate", "value": "less stable"},
      {"measurement": "stability of ACE inhibitory activity under low-concentration salt conditions", "setting": "[1]; read-out ACE inhibition rate", "value": "good stability"},
      {"measurement": "stability of ACE inhibitory activity at low glucose concentration", "setting": "[1]; read-out ACE inhibition rate", "value": "showed stability"}
    ]},
    {"sequence": "FVIEPNITPA [FVIEPNITPA, Phe-Val-Ile-Glu-Pro-Asn-Ile-Thr-Pro-Ala]", "values": [
      {"measurement": "IC50", "setting": "ACE (from rabbit lung)", "value": 6.36, "unit": "µM"},
      {"measurement": "ACE inhibitory activity compared among fractions or with the glutelin-1 hydrolysate (in words)", "setting": "ACE (from rabbit lung); fractions from Sephadex G-15 (1.0 mg/mL) or RP-HPLC, control glutelin-1 hydrolysate before separation", "value": "highest ACE inhibitory activity"},
      {"measurement": "maximal reduction in SBP", "setting": "[2]; high dose 15 mg/kg", "value": 30.4, "unit": "mmHg"},
      {"measurement": "maximal reduction in SBP", "setting": "[2]; low dose 5 mg/kg", "value": 23.0, "unit": "mmHg"},
      {"measurement": "SBP compared with the SHRs group after one week of oral administration", "setting": "[3]; captopril 10 mg/kg, peptides 5 and 15 mg/kg, p < 0.01", "value": "significantly lower"},
      {"measurement": "DBP course during continuous administration", "setting": "[3]; captopril 10 mg/kg, peptides low dose 5 mg/kg, decline reached a maximum in the second week", "value": "began to decrease after one week of continuous administration"},
      {"measurement": "DBP course during continuous administration", "setting": "[3]; high dose 15 mg/kg", "value": "began to decrease in the second week after administration"},
      {"measurement": "serum ET-1 levels", "setting": "[4]; ELISA, SHR control significantly higher than the other groups (p < 0.01)", "value": "low ET-1 levels"},
      {"measurement": "serum ACE level of the SHR control group compared with the treated group", "setting": "[4]; ELISA, p < 0.05", "value": "significantly higher"},
      {"measurement": "serum AGT level of the SHR control group compared with the treated group", "setting": "[4]; ELISA, p < 0.05", "value": "significantly higher"},
      {"measurement": "serum ALD level of the SHR control group compared with the treated group", "setting": "[4]; ELISA, p < 0.05", "value": "significantly higher"},
      {"measurement": "serum AngII level of the SHR control group compared with the treated group", "setting": "[4]; ELISA, p < 0.05", "value": "significantly higher"},
      {"measurement": "serum NO content", "setting": "[4]; NO detection kit, SHR control significantly lower than treated groups (p < 0.05)", "value": "equivalent to that of the captopril group"},
      {"measurement": "ACE inhibitory activity under pepsin or trypsin digestion", "setting": "pepsin and trypsin", "value": "could still maintain high ACE inhibitory activity"},
      {"measurement": "stability of ACE inhibitory activity with metal ions K+, Ca2+ and Mg2+", "setting": "[1]; read-out ACE inhibition rate", "value": "showed stability"},
      {"measurement": "ACE inhibitory activity after temperature treatment", "setting": "[1]; 20 °C-60 °C for 2 h, read-out ACE inhibition rate", "value": "did not change much"},
      {"measurement": "effect of change of pH value on ACE inhibitory activity", "setting": "[1]; 37 °C for 2 h at pH 2, 4, 6, 8 and 10, read-out ACE inhibition rate", "value": "no significant effect"},
      {"measurement": "ACE inhibition rate after temperature treatment", "setting": "[1]; 80 °C for 2 h", "value": "above 80%"},
      {"measurement": "ACE inhibition rate after temperature treatment", "setting": "[1]; 100 °C for 2 h", "value": "about 70%"},
      {"measurement": "stability of ACE inhibitory activity under high-concentration salt conditions", "setting": "[1]; read-out ACE inhibition rate", "value": "less stable"},
      {"measurement": "stability of ACE inhibitory activity under low-concentration salt conditions", "setting": "[1]; read-out ACE inhibition rate", "value": "good stability"},
      {"measurement": "stability of ACE inhibitory activity at low glucose concentration", "setting": "[1]; read-out ACE inhibition rate", "value": "showed stability"}
    ]}
  ]
}
